Experiments:
[1] = molecular target: BIR3 domain of cIAP1 (Homo sapiens, UniProt Q13490); assay: Fluorescence polarization assay; type: binding; conditions: SMAC-FITC probe, Ki calculated from IC50
Description: Binding of compounds to ML-IAP and BIR3 domain of cIAP1, cIAP2 and XIAP was determined by fluorescence polarization. Assay buffer was 100 mM KH2PO4 at pH 7.5, 50 μM ZnSO4, 1 mM TCEP (Tris(2-carboxyethyl)phosphine hydrochloride) and 50 nM SMAC-FITC probe (AbuRPF-K(5-Fam)-NH2) as described by Z. Nikolovska-Coleska et al.^9. cIAP1 and XIAP were present at 800 nM while cIAP2 and MLIAP were present at 1.5 μM. Compounds in 3-fold dilutions were added to the plates ranging from 30 μM to 1.5 nM. Assays were run in 384-well black plates read (Greiner Bio-One #784076) in an Analyst in fluorescence polarization mode with excitation at 485 nm and emission at 535 nm. Data was fit to a nonlinear regression curve in GraphPad Prism 8 to determine the IC50 values of the compounds. Ki's were then calculated from the IC50 values using equation: Ki=[I]50/([L]50/Kd+[P]0/Kd+1) formulated by Z. Nikolovska-Coleska et al.

[2] = system: NB-4; assay: Cell viability (CellTiter-Glo); type: cell-based, Human; conditions: Homo sapiens, NB-4, 72 h, read-out: NB-4 Viability 72 h IC50
Description: The compound 18a was tested in 16 different cell lines. For 6-day compound treatment 1700 cells per well were plated in a 384-well plate (Corning #781098) and incubated overnight at 37° C./5% CO2. […] Afterwards, 20 μL CellTiter-Glo reagent (Promega, #G7570) was added to each well outside of the incubator and the plates were read for luminescence on a Spark® multimode microplate reader (Tecan). Data was fit in GraphPad Prism 8 to a nonlinear regression curve to determine the IC50 of the compounds. […]

[3] = system: latently infected cell line Jurkat 2D10; assay: HIV Jurkat 2D10 cells GFP+ assay (reversal of HIV latency); type: cell-based; conditions: Homo sapiens, Jurkat, 48 h, read-out: Jurkat 2D10 GFP+ EC50
Description: Several compounds (Table 5) were tested for their efficacy in the reversal of HIV latency in the latently infected cell line Jurkat 2D10. Jurkat 2D10 cells were treated with different doses of the compounds, or one of the following compounds: BV-6, SM-164, Birinapant, LCL-161, GDC-0152, AT-406 for 48 hours. Reversal of HW latency was evaluated by analyzing GFP expression using flow cytometry. Induction of GFP expression was compared to baseline GFP levels detected in the absence of treatment.

[4] = system: SKOV-3; assay: Cell viability (CellTiter-Glo), 48 hrs; type: cell-based; conditions: Homo sapiens, SK-OV-3, 48 h, read-out: SKOV-3 Viability 48 h IC50
Description: One thousand seven hundred cells per well were plated in a 384 well plate and incubated overnight at 37° C./5% CO2. The following day, compounds in 10-fold dilutions were added to the plates and the plates returned to the incubator for 48 hrs. 48 hrs later, plates were removed to the bench and 20 μL CellTiter-Glo reagent was added to each well and the plates were read for luminescence on a Spark® multimode microplate reader (Tecan). Data were fit using PRISM to a nonlinear regression curve to determine the IC50 of the compounds.

[5] = system: MOLM 13; assay: Cell viability (CellTiter-Glo), 6-day compound treatment; type: cell-based, Human; conditions: Homo sapiens, MOLM-13, 144 h, read-out: MOLM 13 Viability 6 d IC50
Description: The compound 18a was tested in 16 different cell lines. For 6-day compound treatment 1700 cells per well were plated in a 384-well plate (Corning #781098) and incubated overnight at 37° C./5% CO2. The following day, compounds in 10-fold dilutions were added to the plates and the plates were incubated for 6 days. Afterwards, 20 μL CellTiter-Glo reagent (Promega, #G7570) was added to each well outside of the incubator and the plates were read for luminescence on a Spark® multimode microplate reader (Tecan). Data was fit in GraphPad Prism 8 to a nonlinear regression curve to determine the IC50 of the compounds. […]

BIR3 domain of cIAP1, sequence (Q13490 253-363 limits assumed): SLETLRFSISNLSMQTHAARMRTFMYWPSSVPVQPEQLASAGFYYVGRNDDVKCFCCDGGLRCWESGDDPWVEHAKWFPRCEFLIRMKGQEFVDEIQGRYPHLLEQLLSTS

Compound	Ki [1]	IC50 [2]	EC50 [3]	IC50 [4]	IC50 [5]
CN[C@@H](C)C(=O)N[C@H]1CCS[C@H]2CC(C)(C)[C@@H](C(=O)N[C@H]3c4ccccc4C[C@H]3OCCS(=O)(=O)CCO[C@@H]3Cc4ccccc4[C@@H]3NC(=O)[C@H]3N4C(=O)[C@@H](NC(=O)[C@H](C)NC)CCS[C@H]4CC3(C)C)N2C1=O [Compound 18h, (2S)-1-{[(4S,7S,9aS)-7-{[(1S,2R)-2-{2-[(2-{[(1S,2R)-1-({[(4S,7S,9aS)-8,8-Dimethyl-4-{[(2S)-2-(methylammonio)propanoyl]amino}-5-oxooctahydropyrrolo[2,1-b][1,3]thiazepin-7-yl]carbonyl}amino)-2,3-dihydro-1H-inden-2-yl]oxy}ethyl)sulfonyl]ethoxy}-2,3-dihydro-1H-inden-1-yl]carbamoyl}-8,8-dimethyl-5-oxooctahydropyrrolo[2,1-b][1,3]thiazepin-4-yl]amino}-N-methyl-1-oxopropan-2-ammonium dichloride]	≤ 50 nM	< 10 nM	10 to 100 nM	10 to 100 nM	–
CN[C@@H](C)C(=O)N[C@H]1CCS[C@H]2CC(C)(C)[C@@H](C(=O)N[C@H](CCC(=O)NCCNC(=O)CC[C@@H](NC(=O)[C@H]3N4C(=O)[C@@H](NC(=O)[C@H](C)NC)CCS[C@H]4CC3(C)C)c3ccccc3)c3ccccc3)N2C1=O [Compound 18l, (2S)-1-{[(4S,7S,9aS)-74{(1R)-4-[(2-{[(4R)-4-({[(4S,7S,9aS)-8,8-Dimethyl-4-{[(2S)-2-(methylammonio)propanoyl]amino}-5-oxooctahydropyrrolo[2,1-b][1,3]thiazepin-7-yl]carbonyl}amino)-4-phenylbutanoyl]amino}ethyl)amino]-4-oxo-1-phenylbutyl}carbamoyl)-8,8-dimethyl-5-oxooctahydropyrrolo[2,1-b][1,3]thiazepin-4-yl]amino}-N-methyl-1-oxopropan-2-ammonium dichloride]	≤ 50 nM	10 to 100 nM	100 to 1000 nM	100 to 1000 nM	–
C=CCC1(CC=C)C[C@@H]2SCC[C@H](NC(=O)[C@H](C)NC)C(=O)N2[C@@H]1C(=O)N[C@H]1c2ccccc2C[C@H]1OCC#CC#CCO[C@@H]1Cc2ccccc2[C@@H]1NC(=O)[C@H]1N2C(=O)[C@@H](NC(=O)[C@H](C)NC)CCS[C@H]2CC1(CC=C)CC=C [Compound 18n, (2S)-2-{[(4S,7S,9aS)-7-{[(1S,2R)-2-[(6-{[(1S,2R)-1-[(4S,7S,9aS)-4-[(2S)-2-(Methylamino)propanamido]-5-oxo-8,8-bis(prop-2-en-1-yl)-octahydropyrrolo[2,1-b][1,3]thiazepine-7-amido]-2,3-dihydro-1H-inden-2-yl]oxy}hexa-2,4-diyn-1-yl)oxy]-2,3-dihydro-1H-inden-1-yl]carbamoyl}-5-oxo-8,8-bis(prop-2-en-1-yl)-octahydropyrrolo[2,1-b][1,3]thiazepin-4-yl]carbamoyl}-2-(methylazaniumyl)ethanide dichloride]	50 to 100 nM	–	10 to 100 nM	10 to 100 nM	100 to 1000 nM
CN[C@@H](C)C(=O)N[C@H]1CCS[C@H]2C[C@H](O)[C@@H](C(=O)N[C@H]3c4ccccc4C[C@H]3OCC#CC#CCO[C@@H]3Cc4ccccc4[C@@H]3NC(=O)[C@@H]3[C@@H](O)C[C@@H]4SCC[C@H](NC(=O)[C@H](C)NC)C(=O)N43)N2C1=O [Compound 18p, [(1S)-1-{[(4S,7S,8S,9aS)-7-{[(1S,2R)-2-[(6-{[(1S,2R)-1-[(4S,7S,8S,9aS)-8-Hydroxy-4-[(2S)-2-(methylazaniumyl)propanamido]-5-oxo-octahydropyrrolo[2,1-b][1,3]thiazepine-7-amido]-2,3-dihydro-1H-inden-2-yl]oxy}hexa-2,4-diyn-1-yl)oxy]-2,3-dihydro-1H-inden-1-yl]carbamoyl}-8-hydroxy-5-oxo-octahydropyrrolo[2,1-b][1,3]thiazepin-4-yl]carbamoyl}ethyl](methyl)azanium dichloride]	–	–	100 to 1000 nM	–	–
CN[C@@H](C)C(=O)N[C@H]1CCS[C@H]2CC3(CCCC3)[C@@H](C(=O)N[C@H]3c4ccccc4C[C@H]3OCC#CC#CCO[C@@H]3Cc4ccccc4[C@@H]3NC(=O)[C@H]3N4C(=O)[C@@H](NC(=O)[C@H](C)NC)CCS[C@H]4CC34CCCC4)N2C1=O [Compound 18r]	–	–	10 to 100 nM	–	–
